Measurements taken from patent US20240050577A1, “CDK INHIBITORS AND PHARMACEUTICAL USES THEREOF” (RISEN (SUZHOU) PHARMA TECH CO., LTD., priority 2022, published 2024).

Each compound was assayed on OVCAR3 cells (assay: Cell proliferation study (Cell Titer Glo, 72 h)). Settings: Homo sapiens, OVCAR-3, luminescence, read-out: IC50, inhibitory effect on cellular proliferation.
Format: cell-based
Experimental: OVCAR3 (Cobioer, CBP60294) cell line in logarithmic growth phase was used for these experiments. The cell density was adjusted to 1.1×10^4/mL and the cells were inoculated into a 96-well cell culture plate (Corning, 3599), 95 μL per well (the number of cells per well was 1×10^3). The culture plate was placed in an incubator, with 5% carbon dioxide, at 37° C. and incubated overnight. On the next day, a 10 mM stock solution of test compound was prepared in DMSO (Sigma, RNBF5902). After gradient dilution, a series of working solutions with different concentrations of test compound was prepared using complete medium. Working solution was added into the corresponding wells of the orifice plate, and the plate was placed in a 5% carbon dioxide incubator and cultivated at 37° C. for 72 h, and then removed from the incubator. To each well was added 50 μL Cell Tier Glo (Promega, G7573), and the plate was incubated at room temperature for 10 min, followed by luminescence detection with an enzyme marker. The inhibition curve was obtained with GraphPad 7.0 software using four-parameter equation.
CC(C)N1CCOc2c(F)cc(-c3nc(Nc4ccc(S(=O)(=O)NCCOCc5cn(CCOCCOCCNc6cccc7c6C(=O)N(C6CCC(=O)NC6=O)C7=O)nn5)cc4)ncc3F)cc21 (stereo not drawn) [Compound 20, N-[2-[[1-[2-[2-[2-[[2-(2,6-dioxo-3-piperidyl)-1,3-dioxo-isoindolin-4-yl]amino]ethoxy]ethoxy]ethyl]triazol-4-yl]methoxy]ethyl]-4-[[5-fluoro-4-(8-fluoro-4-isopropyl-2,3-dihydro-1,4-benzoxazin-6-yl)pyrimidin-2-yl]amino]benzenesulfonamide] was tested, and the IC50 was > 10000 nM.
In the case of Cc1nc2c(F)cc(-c3nc(Nc4ccc(S(=O)(=O)C5CCN(C6CN(C7CCN(c8cc9c(cc8F)C(=O)N(C8CCC(=O)NC8=O)C9=O)CC7)C6)CC5)cc4)ncc3F)cc2n1C(C)C (stereo not drawn) [Compound 66], the IC50 is reported as < 100 nM.
Compound Cc1nc2c(F)cc(-c3nc(Nc4ccc(S(=O)(=O)N5CCC6(CCN(C(=O)CNc7cc8c(cc7F)C(=O)N(C7CCC(=O)NC7=O)C8=O)CC6)CC5)cc4)ncc3F)cc2n1C(C)C (stereo not drawn) [Compound 105] has an IC50 of 101 to 1000 nM.
In the case of Cc1ccsc1C(=O)n1nc(Nc2ccc(S(=O)(=O)NCCOCc3cn(CCOCCOCCNc4cccc5c4C(=O)N(C4CCC(=O)NC4=O)C5=O)nn3)cc2)nc1N (stereo not drawn) [Compound 32], the IC50 is reported as > 10000 nM.
CC(C)N1CCOc2c(F)cc(-c3nc(NC4CCN(S(=O)(=O)C5CCN(CC6CCN(c7ccc8c(c7)C(=O)N(C7CCC(=O)NC7=O)C8=O)CC6)CC5)CC4)ncc3F)cc21 (stereo not drawn) [Compound 19, 2-(2,6-dioxo-3-piperidyl)-5-[4-[[4-[[4-[[5-fluoro-4-(8-fluoro-4-isopropyl-2,3-dihydro-1,4-benzoxazin-6-yl)pyrimidin-2-yl]amino]-1-piperidyl]sulfonyl]-1-piperidyl]methyl]-1-piperidyl]isoindoline-1,3-dione] was tested, and the IC50 was 101 to 1000 nM.
C[C@@]1(O)CCC[C@H]1n1c(=O)ccc2cnc(Nc3ccc(S(=O)(=O)C4CCN(C5CC6(C5)CN(c5cc7c(cc5F)C(=O)N(C5CCC(=O)NC5=O)C7=O)C6)CC4)cc3)nc21 (stereo partly drawn) [Compound 76] was tested, and the IC50 was > 10000 nM.
For C[C@@]1(O)CCC[C@H]1n1c(=O)ccc2cnc(NC3CCN(S(=O)(=O)C4CCN(C5CC6(CCN(c7cccc8c7C(=O)N(C7CCC(=O)NC7=O)C8=O)CC6)C5)CC4)CC3)nc21 (stereo partly drawn) [Compound 107], the IC50 was 101 to 1000 nM.
In the case of CC(C)N1CCOc2c(F)cc(-c3nc(Nc4ccc(S(=O)(=O)N5CCN(C6CC7(CCN(c8cccc9c8C(=O)N(C8CCC(=O)NC8=O)C9=O)CC7)C6)CC5)cc4)ncc3F)cc21 (stereo not drawn) [Compound 72], the IC50 is reported as > 10000 nM.
Work on C[C@@]1(O)CCC[C@H]1n1c(=O)ccc2cnc(NC3CCN(S(=O)(=O)C4CCN(C(=O)C5CC6(CCN(c7cc8c(cc7F)C(=O)N(C7CCC(=O)NC7=O)C8=O)CC6)C5)CC4)CC3)nc21 (stereo partly drawn) [Compound 77] yielded an IC50 of 1000 to 5000 nM.
Compound Cc1nc2c(F)cc(-c3nc(Nc4ccc(S(=O)(=O)C5CCN(CC6CCN(C7CN(c8cc9c(cc8F)C(=O)N(C8CCC(=O)NC8=O)C9=O)C7)CC6)CC5)cc4)ncc3F)cc2n1C(C)C (stereo not drawn) [Compound 65] has an IC50 of 101 to 1000 nM.
CC(C)N1CCOc2c(F)cc(-c3nc(Nc4ccc(C5CCN(CCCCCCCCCOc6cccc7c6C(=O)N(C6CCC(=O)NC6=O)C7=O)CC5)cn4)ncc3F)cc21 (stereo not drawn) [Compound 1] was tested, and the IC50 was > 10000 nM.
Cc1nc2c(F)cc(-c3nc(Nc4ccc(S(=O)(=O)C5CCN(CC6CCN(c7cc8c(cc7F)C(=O)N(C7CCC(=O)NC7=O)C8=O)CC6)CC5)cc4)ncc3F)cc2n1C(C)C (stereo not drawn) [Compound 110] showed an IC50 of 101 to 1000 nM.
In the case of Cc1nc2c(F)cc(-c3nc(Nc4ccc(S(=O)(=O)NCCOCCNc5cccc6c5C(=O)N(C5CCC(=O)NC5=O)C6=O)cc4)ncc3F)cc2n1C(C)C (stereo not drawn) [Compound 47], the IC50 is reported as 1000 to 5000 nM.
In the case of CC(C)N1CCOc2c(F)cc(-c3nc(Nc4ccc(S(=O)(=O)N5CCN(C6CCN(C7CN(c8cccc9c8C(=O)N(C8CCC(=O)NC8=O)C9=O)C7)CC6)CC5)cc4)ncc3F)cc21 (stereo not drawn) [Compound 55], the IC50 is reported as > 10000 nM.
With C[C@@]1(O)CCC[C@H]1n1c(=O)ccc2cnc(NC3CCN(S(=O)(=O)C4CCN(C5CCC6(CC5)CCN(c5cc7c(cc5F)C(=O)N(C5CCC(=O)NC5=O)C7=O)CC6)CC4)CC3)nc21 (stereo partly drawn) [Compound 89] the IC50 was 101 to 1000 nM.
For C[C@@]1(O)CCC[C@H]1n1c(=O)ccc2cnc(NC3CCN(S(=O)(=O)C4CCN(CC5CCN(c6cc7c(cc6F)C(=O)N(C6CCC(=O)NC6=O)C7=O)CC5)CC4)CC3)nc21 (stereo partly drawn) [Compound 93], the IC50 was 1000 to 5000 nM.
Cc1nc2c(F)cc(-c3nc(N[C@@H]4CCN(S(=O)(=O)C5CCN(CC6CCN(c7cc8c(cc7F)C(=O)N(C7CCC(=O)NC7=O)C8=O)CC6)CC5)C[C@H]4O)ncc3F)cc2n1C(C)C (stereo partly drawn) [Compound 111] was tested, and the IC50 was < 100 nM.
Work on C[C@@]1(O)CCC[C@H]1n1c(=O)ccc2cnc(Nc3ccc(S(=O)(=O)C4CCN(C5CN(C6CCN(c7cc8c(cc7F)C(=O)N(C7CCC(=O)NC7=O)C8=O)CC6)C5)CC4)cc3)nc21 (stereo partly drawn) [Compound 59] yielded an IC50 of 1000 to 5000 nM.
C[C@@]1(O)CCC[C@H]1n1c(=O)ccc2cnc(NC3CCN(S(=O)(=O)C4CCN(CC5CCC6(CC5)CCN(c5cc7c(cc5F)C(=O)N(C5CCC(=O)NC5=O)C7=O)CC6)CC4)CC3)nc21 (stereo partly drawn) [Compound 90] was tested, and the IC50 was 101 to 1000 nM.
Compound Cc1nc2c(F)cc(-c3nc(Nc4ccc(S(=O)(=O)NCCOCc5cn(CCOCCOCCNc6cccc7c6C(=O)N(C6CCC(=O)NC6=O)C7=O)nn5)cc4)ncc3F)cc2n1C(C)C (stereo not drawn) [Compound 50] has an IC50 of 1000 to 5000 nM.
C[C@@]1(O)CCC[C@H]1n1c(=O)ccc2cnc(Nc3ccc(S(=O)(=O)N4CCC5(CCN(C6CN(c7cc8c(cc7F)C(=O)N(C7CCC(=O)NC7=O)C8=O)C6)CC5)CC4)cc3)nc21 (stereo partly drawn) [Compound 58] showed an IC50 of 1000 to 5000 nM.
For CC(C)N1CCOc2c(F)cc(-c3nc(Nc4ccc(S(N)(=O)=O)cc4)ncc3F)cc21 [Compound 31], the IC50 was 101 to 1000 nM.
Compound Cc1nc2c(F)cc(-c3nc(Nc4ccc(S(=O)(=O)C5CCN(C6CC7(CCN(c8cc9c(cc8F)C(=O)N(C8CCC(=O)NC8=O)C9=O)CC7)C6)CC5)cc4)ncc3F)cc2n1C(C)C (stereo not drawn) [Compound 46] has an IC50 of 101 to 1000 nM.
For CC(C)N1CCOc2c(F)cc(-c3nc(Nc4ccc(C5CCN(CCOCCOCCNc6cccc7c6C(=O)N(C6CCC(=O)NC6=O)C7=O)CC5)cn4)ncc3F)cc21 (stereo not drawn) [Compound 2], the IC50 was > 10000 nM.
CC(C)N1CCOc2c(F)cc(-c3nc(Nc4ccc(S(=O)(=O)N5CCC(NC(=O)C6CCN(c7cccc8c7C(=O)N(C7CCC(=O)NC7=O)C8=O)CC6)CC5)cc4)ncc3F)cc21 (stereo not drawn) [Compound 73] was tested, and the IC50 was > 10000 nM.
Cc1nc2c(F)cc(-c3nc(NC4CCN(S(=O)(=O)C5CCN(CC6CC7CCC(C6)N7C6CN(c7cc8c(cc7F)C(=O)N(C7CCC(=O)NC7=O)C8=O)C6)CC5)CC4)ncc3F)cc2n1C(C)C (stereo not drawn) [Compound 101] was tested, and the IC50 was < 100 nM.
Compound Cc1nc2c(F)cc(-c3nc(N[C@@H]4CCN(S(=O)(=O)C5CCN(CC6CCN(c7cc8c(cc7F)C(=O)N(C7CCC(=O)NC7=O)C8=O)CC6)CC5)C[C@H]4O)ncc3Cl)cc2n1C(C)C (stereo partly drawn) [Compound 112] has an IC50 of 101 to 1000 nM.
With C[C@@]1(O)CCC[C@H]1n1c(=O)c(Cl)cc2cnc(NC3CCN(S(=O)(=O)C4CCN(C5CC6(CCN(c7cc8c(cc7F)C(=O)N(C7CCC(=O)NC7=O)C8=O)CC6)C5)CC4)CC3)nc21 (stereo partly drawn) [Compound 34] the IC50 was > 10000 nM.
With Cc1nc2c(F)cc(-c3nc(NC4CCN(S(=O)(=O)C5CCN(C6CC7(CCN(c8cc9c(cc8F)C(=O)N(C8CCC(=O)NC8=O)C9=O)CC7)C6)CC5)CC4)ncc3F)cc2n1C(C)C (stereo not drawn) [Compound 75] the IC50 was 1000 to 5000 nM.
CC(C)N1CCOc2c(F)cc(-c3nc(Nc4ccc(C5CCN(CCCCCCOc6cccc7c6C(=O)N(C6CCC(=O)NC6=O)C7=O)CC5)cn4)ncc3F)cc21 (stereo not drawn) [Compound 28] was tested, and the IC50 was > 10000 nM.
With CC(C)N1CCOc2c(F)cc(-c3nc(Nc4ccc(S(=O)(=O)N5CCN(CC6CCN(c7ccc8c(c7)C(=O)N(C7CCC(=O)NC7=O)C8=O)CC6)CC5)cc4)ncc3F)cc21 (stereo not drawn) [Compound 33] the IC50 was > 10000 nM.
For Cc1nc2c(F)cc(-c3nc(Nc4ccc(S(=O)(=O)N5CC(C(=O)N6CCC7(CC6)CCN(c6cccc8c6C(=O)N(C6CCC(=O)NC6=O)C8=O)CC7)C5)cc4)ncc3F)cc2n1C(C)C (stereo not drawn) [Compound 40], the IC50 was > 10000 nM.
Cc1nc2c(F)cc(-c3nc(Nc4ccc(NS(=O)(=O)CCNC(=O)CO[C@@H]5C[C@H](C)CC[C@H]5C(C)C)cc4)ncc3F)cc2n1C(C)C (racemic) [Compound 26] gave an IC50 of 1000 to 5000 nM.
In the case of Cc1nc2c(F)cc(-c3nc(NC4CCN(S(=O)(=O)C5CCN(CC6CC(N7CCC(c8cccc(C9CCC(=O)NC9=O)c8)CC7)C6)CC5)CC4)ncc3F)cc2n1C(C)C (stereo not drawn) [Compound 102], the IC50 is reported as 101 to 1000 nM.
Compound Cc1nc2c(F)cc(-c3nc(NC4CCN(S(=O)(=O)C5CCN(C(=O)C6CCN(c7cc8c(cc7F)C(=O)N(C7CCC(=O)NC7=O)C8=O)CC6)CC5)CC4)ncc3F)cc2n1C(C)C (stereo not drawn) [Compound 74] has an IC50 of 1000 to 5000 nM.
C[C@@]1(O)CCC[C@H]1n1c(=O)ccc2cnc(NC3CCN(S(=O)(=O)C4CCN(C5CCC6(CCN(c7cc8c(cc7F)C(=O)N(C7CCC(=O)NC7=O)C8=O)C6)C5)CC4)CC3)nc21 (stereo partly drawn) [Compound 84] was tested, and the IC50 was 101 to 1000 nM.
Cc1nc2c(F)cc(-c3nc(NC4CCN(S(=O)(=O)C5CCN(CCC6CCN(c7cc8c(cc7F)C(=O)N(C7CCC(=O)NC7=O)C8=O)CC6)CC5)CC4)ncc3F)cc2n1C(C)C (stereo not drawn) [Compound 104] was tested, and the IC50 was 101 to 1000 nM.
C[C@@]1(O)CCC[C@H]1n1c(=O)ccc2cnc(NC3CCN(S(=O)(=O)N4CCN(CC5CCN(c6cc7c(cc6F)C(=O)N(C6CCC(=O)NC6=O)C7=O)CC5)CC4)CC3)nc21 (stereo partly drawn) [Compound 60] gave an IC50 of 1000 to 5000 nM.
C[C@@]1(O)CCC[C@H]1n1c(=O)ccc2cnc(NC3CCN(S(=O)(=O)C4CCN(C5CCC6(CCN(c7cc8c(cc7F)C(=O)N(C7CCC(=O)NC7=O)C8=O)CC6)C5)CC4)CC3)nc21 (stereo partly drawn) [Compound 81] showed an IC50 of 101 to 1000 nM.
